The test relates to Pythium damping-off pathogen (Pythium irregulare). Kind of test: Cucumber seed treatment test against Pythium damping-off (Test Example 1). As to conditions: cucumber (Sagamihanjiro) seed treatment, 20° C., 8 days. In kind it is in vivo. How it is done:
A DMSO solution of the compound I and a DMSO solution of ethaboxam were respectively prepared. These solutions were mixed to prepare a DMSO solution containing predetermined concentrations of the compound I and ethaboxam. Ten (10) μL of the DMSO solution and 1 g of cucumber (Sagamihanjiro) seeds were mixed by shaking in a 15-ml conical tube and then allowed to stand overnight to prepare treated seeds. A plastic pot was filled with sandy soil and the treated seeds were sown on it and then covered with sandy soil which had been mixed with a bran culture of Pythium damping-off pathogen (Pythium irregulare). The sown seeds were watered and then cultured in a cultivation room at 20° C. for 8 days. The occurrence of Pythium damping-off diseases was checked and the incidence of disease was calculated by Equation 1.
For comparison, a DMSO solution containing a predetermined concentration of ethaboxam was prepared and subjected to the same test and then the incidence of disease was determined.
In order to calculate a control value, the same test was conducted in which the plants had been treated with none of the test compounds and the incidence of disease was determined.
The control value was calculated by the Equation 2 based on the incidence of disease thus determined. […]

For `CCNc1nc(CC)c(C(=O)NC(C#N)c2cccs2)s1` (centres unmarked) [Ethaboxam], the Control value was determined as 43 (ethaboxam 2 g/100 kg seeds alone (compound I 0)) and 64 (ethaboxam 10 g/100 kg seeds alone (compound I 0)).

Source of the values: patent publication US8658566B2, “Composition and method for controlling plant diseases” (Sumitomo Chemical Company, Limited, priority 2009, dated 2014).
